# Earlier results as cited in patent EP2085120A1, “The use of substances for the treatment of central or peripheral insulin receptor impairment and insulin resistance” (Merz Pharma GmbH & Co. KGaA, priority 2008, dated 2009).
# Test system: cultured hippocampal and cortical neurons
# Conditions: cultured hippocampal and cortical neurons pretreated with ADDLs or ADDL/glutamate; addition of an NMDA receptor antagonist
structure (smiles),measurement,value
CC12CC3CC(C)(C1)CC(N)(C3)C2 [memantine],ADDL and glutamate-induced decreased insulin sensitivity,reversible
